# Values of other authors, collected in US20130274331A1, “Method for Treating Hyperuricemia in Patients with Gout Using Halofenate or Halofenic Acid and an Anti-Inflammatory Agent” (Metabolex, Inc., priority 2012, published 2013).
# Settings: gout patients; monotherapy at 40, 80, 120, 160 and 240 mg/day
smiles,measurement,value
"O=c1[nH]cnc2c(CN3C[C@H](CO)[C@@H](O)C3)c[nH]c12 [BCX4208, 7-(((3R,4R)-3-hydroxy-4-(hydroxymethyl)pyrrolidin-1-yl)methyl)-3H-pyrrolo[3,2-d]pyrimidin-4(5H)-one]",reduction of serum uric acid,rapidly and significantly reduced serum uric acid
